Experimental findings from patent US20150342954A1, “2-BENZYL, 3-(PYRIMIDIN-2-YL) SUBSTITUTED PYRAZOLES USEFUL AS SGC STIMULATORS” (IRONWOOD PHARMACEUTICALS, INC., priority 2011, published 2015) are described below.

In general, Emax refers to the greatest response seen or fitted, relative to the assay's reference. Usually EC50 stands for the concentration at which the effect is half-maximal.

Where two headings read alike, the source gives them in different places.

The target in this test is T1, soluble guanylate cyclase (sGC) (Homo sapiens, UniProt Q02108+Q02153).
T1 construct: endogenously expressing soluble guanylate cyclase (sGC); endogenous in cells; host or cells: HEK293
T1 sequence (Q02153 1-619): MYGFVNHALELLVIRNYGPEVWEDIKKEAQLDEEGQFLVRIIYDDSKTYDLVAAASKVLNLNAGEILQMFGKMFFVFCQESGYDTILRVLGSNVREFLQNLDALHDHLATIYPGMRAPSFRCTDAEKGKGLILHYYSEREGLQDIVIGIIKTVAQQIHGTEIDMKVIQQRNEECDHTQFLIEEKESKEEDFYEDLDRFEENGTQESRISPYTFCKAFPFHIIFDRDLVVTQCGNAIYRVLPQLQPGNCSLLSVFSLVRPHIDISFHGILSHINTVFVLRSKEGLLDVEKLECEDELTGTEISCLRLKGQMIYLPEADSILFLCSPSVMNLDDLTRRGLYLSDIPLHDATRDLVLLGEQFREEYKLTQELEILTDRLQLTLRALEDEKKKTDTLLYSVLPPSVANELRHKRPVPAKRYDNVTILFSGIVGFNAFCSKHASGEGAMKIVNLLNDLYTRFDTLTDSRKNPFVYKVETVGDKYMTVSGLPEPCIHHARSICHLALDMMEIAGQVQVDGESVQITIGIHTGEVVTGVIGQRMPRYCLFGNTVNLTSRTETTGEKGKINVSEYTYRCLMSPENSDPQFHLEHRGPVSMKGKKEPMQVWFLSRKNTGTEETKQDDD
T1 sequence (Q02108 1-690): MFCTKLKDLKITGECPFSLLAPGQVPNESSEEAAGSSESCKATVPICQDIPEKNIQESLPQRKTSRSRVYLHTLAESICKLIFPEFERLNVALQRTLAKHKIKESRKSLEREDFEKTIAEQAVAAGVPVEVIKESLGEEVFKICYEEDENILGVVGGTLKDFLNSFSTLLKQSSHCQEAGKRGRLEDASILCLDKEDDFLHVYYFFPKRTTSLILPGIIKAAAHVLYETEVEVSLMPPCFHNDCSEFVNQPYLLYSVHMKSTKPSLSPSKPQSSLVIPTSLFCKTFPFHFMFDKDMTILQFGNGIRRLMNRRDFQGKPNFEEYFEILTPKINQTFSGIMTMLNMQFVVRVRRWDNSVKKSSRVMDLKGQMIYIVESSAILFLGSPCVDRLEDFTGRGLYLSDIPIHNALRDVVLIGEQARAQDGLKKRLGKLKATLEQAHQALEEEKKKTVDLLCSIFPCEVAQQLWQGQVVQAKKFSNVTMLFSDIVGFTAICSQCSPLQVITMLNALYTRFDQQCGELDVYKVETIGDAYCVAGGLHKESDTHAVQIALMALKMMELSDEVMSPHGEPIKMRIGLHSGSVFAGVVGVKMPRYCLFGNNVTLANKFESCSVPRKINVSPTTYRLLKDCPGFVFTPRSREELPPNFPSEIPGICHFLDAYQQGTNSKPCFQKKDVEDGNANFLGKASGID
The test can be described thus: sGC-HEK-cGMP assay (run with SNP incubation). In kind it is cell-based. Conditions: for Emax: Table 3A, 10 μM SNP, 100% = 30 μM BAY 41-2272 with 10 μM SNP, read-out: HEK assay Emax-unconstrained (Percent); for HEK MEC-10: concentration that would elicit 10% of the Emax in the presence of 10 μM SNP; for HEK MEC-10 / EC50: Table 3D; for EC50: in the presence of 10 μM SNP. As for the experimental part: Biological Activity Measurement by the sGC-HEK-cGMP Assay
(Assay Run with SNP Incubation)
Human embryonic kidney cells (HEK293), endogenously expressing soluble guanylate cyclase (sGC), were used to evaluate the activity of test compounds. Compounds stimulating the sGC receptor should cause an increase in the intracellular concentration of cGMP. HEK 293 cells were seeded in Dulbecco's Modification of Eagle's Medium supplemented with fetal bovine serum (10% final) and L-glutamine (2 mM final) in a 2004 volume at a density of 1×10^5 cells/well in a poly-D-lysine coated 96 well flat bottom plate and grown overnight at 37° C. Medium was aspirated and cells were washed with 1× Hank's Buffered Saline Salt Solution (2004). Cells were then incubated for 15 minutes at 37° C. with 0.5 mM 3-isobutyl-1-methylxanthine (2004). Test article and sodium nitroprusside were then added to the assay mixture (24 each) and incubated at 37° C. for 10 minutes. After the 10 minute incubation, the assay mixture was aspirated and 0.1M HCl (2004) was added to the cells. The plate was incubated at 4° C. for 30 minutes in the 0.1M HCl to stop the reaction and lysed the cells. The plates were then centrifuged at 1,200 g for 5 minutes at room temperature. Supernatants were collected and transferred to a new flat bottom 96 well plate for analysis. Vehicle controls were carried out using DMSO (1%). A known sGC stimulator, BAY 41-2272, was used as the positive control. Samples were diluted with an equal volume of 1 M Ammonium Acetate (pH 7) to neutralize samples for better chromatography. A 2×cGMP standard curve was prepared in 0.1 M HCl and then diluted with an equal volume of 1 M Ammonium Acetate, with the following final concentrations in nM: 1024, 512, 256, 128, 64, 32, 16, 8, 4, 2, 1.cGMP concentrations were determined from each sample using the LC/MS conditions (Table 2 below) and calculated standard curve. EC50 values were calculated from concentration-response curves generated with GraphPad Prism Software.

Setting [1] is: top of concentration-response curve not fitted to 100%.
The mark [2] stands for this setting: top of concentration-response curve not fitted to 100%, read-out: HEK assay EC50-unconstrained.

As for `O=c1[nH]c(-c2nn(Cc3ccccc3F)c(-c3ccon3)c2F)ncc1F` [Compound 3], the “HEK MEC-10” value is listed as “D (1 to <10 μM)”. In addition, under setting [1], the Emax was not below 120%. Besides, the EC50 (read-out: HEK assay EC50) is less than 20 µM. For the same compound, under setting [2], the EC50 fell in the range of 10 to 50 µM.

Consider `Oc1nc(-c2cc(-c3ccon3)n(Cc3ccccc3F)n2)ncc1Sc1ccc(F)cc1` [Compound 4, 2-(1-(2-fluorobenzyl)-5-(isoxazol-3-yl)-1H-pyrazol-3-yl)-5-(4-fluorophenylthio)pyrimidin-4-ol], for which the “HEK MEC-10” value is “C (0.1 to <1 μM)”. Further, the Emax under setting [1] lay in the range of 60 to 80%. Also, for the setting “read-out: HEK assay EC50”, the EC50 was less than 20 µM. Further, the EC50 under setting [2] was in the range of 1 to 5 µM.

Consider `CC1(C(=O)Oc2cnc(-c3cc(-c4ccon4)n(Cc4ccccc4F)n3)nc2N)CC1` [Compound 5], for which the “HEK MEC-10” value was “C (0.1 to <1 μM)”. Further, the Emax under setting [1] fell in the range of 80 to 100%. For the same compound, where the note is “read-out: HEK assay EC50”, the EC50 was less than 20 µM. In addition, under setting [2], the EC50 was in the range of 10 to 50 µM.

`Oc1nc(-c2cc(-c3ccon3)n(Cc3ccccc3F)n2)ncc1Sc1ccc(Cl)cc1` [Compound 6, 5-(4-chlorophenylthio)-2-(1-(2-fluorobenzyl)-5-(isoxazol-3-yl)-1H-pyrazol-3-yl)pyrimidin-4-ol]: the “HEK MEC-10” value is reported as “C (0.1 to <1 μM)”. Moreover, the Emax under setting [1] is 60 to 80%. Under “read-out: HEK assay EC50”, the EC50 was less than 20 µM. The concentration giving a half-maximal response (EC50) under setting [2] is 1 to 5 µM.

On to `Oc1nc(-c2cc(-c3ncco3)n(Cc3ccccc3F)n2)ncc1Sc1ccccn1` [Compound 7, 2-(1-(2-fluorobenzyl)-5-(oxazol-2-yl)-1H-pyrazol-3-yl)-5-(pyridin-2-ylthio)pyrimidin-4-ol], for which the “HEK MEC-10” value is “B (0.01 to <0.1 μM)”. For the same compound, under setting [1], the Emax lay in the range of 60 to 80%. Further, the EC50 (read-out: HEK assay EC50) is less than 20 µM. For the same compound, under setting [2], the EC50 lay within 0.01 to 0.5 µM.

For the compound `Nc1nc(-c2cc(-c3ccon3)n(Cc3ccccc3F)n2)ncc1NC(=O)C1(c2ccccc2F)CC1` [Compound 9], the “HEK MEC-10” value is “B (0.01 to <0.1 μM)”. The Emax under setting [1] was 60 to 80%. The EC50 (read-out: HEK assay EC50) was less than 20 µM. Under setting [2], the EC50 was in the range of 0.01 to 0.5 µM.

`Nc1nc(-c2cc(-c3ccon3)n(Cc3ccccc3F)n2)ncc1NC(=O)C1(c2cccc(F)c2)CC1` [Compound 11]: the “HEK MEC-10” value is given as “B (0.01 to <0.1 μM)”. The Emax under setting [1] was 60 to 80%. Moreover, the EC50 (read-out: HEK assay EC50) was less than 20 µM. Further, the half-maximal effective concentration (EC50) under setting [2] was 0.01 to 0.5 µM.

As for `COc1ccc(C2(C(=O)Nc3cnc(-c4cc(-c5ccon5)n(Cc5ccccc5F)n4)nc3N)CC2)cc1` [Compound 12], the “HEK MEC-10” value is recorded as “B (0.01 to <0.1 μM)”. Moreover, under setting [1], the Emax lay within 60 to 80%. In addition, where the note is “read-out: HEK assay EC50”, the EC50 is less than 20 µM. Further, under setting [2], the EC50 was 0.01 to 0.5 µM.

With `Nc1nc(-c2cc(-c3ccon3)n(Cc3ccccc3F)n2)ncc1NC(=O)C1(c2ccc(F)cc2)CC1` [Compound 13], the “HEK MEC-10” value is recorded as “B (0.01 to <0.1 μM)”. Moreover, the Emax under setting [1] is 80 to 100%. Besides, the half-maximal effective concentration (EC50) (read-out: HEK assay EC50) is less than 20 µM. Under setting [2], the EC50 was 0.01 to 0.5 µM.

For `CN(C1CC1)S(=O)(=O)c1cnc(-c2cc(-c3ccon3)n(Cc3ccccc3F)n2)[nH]c1=O` [Compound 14], the “HEK MEC-10” value is listed as “B (0.01 to <0.1 μM)”. Moreover, the Emax under setting [1] lay within 40 to 60%. Further, under “read-out: HEK assay EC50”, the EC50 was less than 20 µM. In addition, the EC50 under setting [2] was 0.01 to 0.5 µM.

As to `Nc1ccnc(-c2cc(-c3ccon3)n(Cc3c(F)ccc(F)c3F)n2)n1` [Compound 15], the “HEK MEC-10” value was “D (1 to <10 μM)”. Under setting [1], the Emax was in the range of 20 to 40%. Further, where the note is “read-out: HEK assay EC50”, the EC50 was 40 to 60 µM. The EC50 under setting [2] lay within 1 to 5 µM.

For `CN(Cc1ccccc1)S(=O)(=O)c1cnc(-c2cc(-c3ccon3)n(Cc3ccccc3F)n2)[nH]c1=O` [Compound 16], the “HEK MEC-10” value is listed as “C (0.1 to <1 μM)”. The Emax under setting [1] was in the range of 60 to 80%. Further, the EC50 (read-out: HEK assay EC50) was less than 20 µM. Also, the EC50 under setting [2] lay within 0.5 to 1 µM.

With `Oc1nc(-c2cc(-c3ccon3)n(Cc3ccccc3F)n2)ncc1Sc1ccc(C(F)(F)F)cc1` [Compound 17, 2-(1-(2-fluorobenzyl)-5-(isoxazol-3-yl)-1H-pyrazol-3-yl)-5-(4-(trifluoromethyl)phenylthio)pyrimidin-4-ol], the EC50 (read-out: HEK assay EC50) lay within 1200 to 7000 µM.

As for `Oc1nc(-c2cc(-c3ccon3)n(Cc3ccccc3F)n2)ncc1Sc1ccccn1` [Compound 18, 2-(1-(2-fluorobenzyl)-5-(isoxazol-3-yl)-1H-pyrazol-3-yl)-5-(pyridin-2-ylthio)pyrimidin-4-ol], the “HEK MEC-10” value was “C (0.1 to <1 μM)”. The Emax under setting [1] fell in the range of 60 to 80%. Also, under “read-out: HEK assay EC50”, the EC50 is 20 to 40 µM. Also, the EC50 under setting [2] lay in the range of 10 to 50 µM.

For `O=c1[nH]c(-c2cc(-c3ccon3)n(Cc3c(F)ccc(F)c3F)n2)ncc1F` [Compound 19, 5-fluoro-2-(5-(isoxazol-3-yl)-1-(2,3,6-trifluorobenzyl)-1H-pyrazol-3-yl)pyrimidin-4-ol], the “HEK MEC-10” value was “D (1 to <10 μM)”. Further, the maximal effect (Emax) under setting [1] was 20 to 40%. Also, under “read-out: HEK assay EC50”, the EC50 is 40 to 60 µM. Further, under setting [2], the EC50 lay in the range of 0.5 to 1 µM.

`Oc1nc(-c2cc(-c3ncco3)n(Cc3ccccc3F)n2)ncc1Sc1ccccc1` [Compound 20, 2-(1-(2-fluorobenzyl)-5-(oxazol-2-yl)-1H-pyrazol-3-yl)-5-(phenylthio)pyrimidin-4-ol]: the “HEK MEC-10” value is “C (0.1 to <1 μM)”. Moreover, the Emax under setting [1] is 40 to 60%. Also, the EC50 (read-out: HEK assay EC50) is 20 to 40 µM. Moreover, under setting [2], the EC50 was 1 to 5 µM.

For `O=c1[nH]c(-c2cc(-c3ccon3)n(Cc3ccccc3F)n2)ncc1S(=O)(=O)N1CCCC1` [Compound 21], the “HEK MEC-10” value was “C (0.1 to <1 μM)”. In addition, under setting [1], the Emax is 60 to 80%. Besides, where the note is “read-out: HEK assay EC50”, the EC50 was less than 20 µM. Also, the 50% effective concentration (EC50) under setting [2] was 0.5 to 1 µM.

Turning to `CN(C)S(=O)(=O)c1cnc(-c2cc(-c3ccon3)n(Cc3ccccc3F)n2)[nH]c1=O` [Compound 22], the “HEK MEC-10” value is given as “D (1 to <10 μM)”. In addition, the Emax under setting [1] fell in the range of 80 to 100%. Besides, the EC50 (read-out: HEK assay EC50) is less than 20 µM. Moreover, the EC50 under setting [2] was 1 to 5 µM.

For the compound `Fc1cnccc1Cn1nc(-c2ncccn2)cc1-c1ccon1` [Compound 23], the “HEK MEC-10” value is recorded as “E (10 to 50 μM)”.

On to `CN(c1ccccc1)S(=O)(=O)c1cnc(-c2cc(-c3ccon3)n(Cc3ccccc3F)n2)[nH]c1=O` [Compound 25], for which the “HEK MEC-10” value is given as “C (0.1 to <1 μM)”. The Emax under setting [1] was 60 to 80%. Where the note is “read-out: HEK assay EC50”, the EC50 is less than 20 µM. Under setting [2], the EC50 was in the range of 0.5 to 1 µM.
